# Measured values: patent US9462808B2, “Pesticidal compositions” (Syngenta Participants AG, priority 2010, dated 2016)
# Like-named read-outs stand apart in the source and are kept apart here.
# What was measured:
# [1] = tested on: Nilaparvata lugens (brown plant hopper, BPH); test: Activity against Nilaparvata lugens (brown plant hopper, BPH) on rice, spray with safeners, 7 d after application (Example B2); format: in vivo; conditions: 168 h
# Protocol: Eight replicates (pots with rice plants) were sprayed with respective test solutions. Test solutions contained the formulated test compound and the safener cloquintocet and N-(2-methoxybenzoyl)-4-[(methylaminocarbonyl)amino]-benzenesulfonamide at different ratios. 4 pots were infested with plant hopper nymphs right after application. 7d after application BPH mortality and plant safety were evaluated. […] Assessment on plant safety was done by measuring the average plant height per replicate.
# [2] = tested on: Rhopalosiphum padi (cereal aphid); test: Activity against Rhopalosiphum padi (cereal aphid) on wheat, spray with safener cloquintocet, 6 days after application (Example B1); format: in vivo; conditions: 144 h
# Protocol: One replicate consisted of 4 wheat plants per pot. […] 9 days after seeding all wheat plants (10replicates) were sprayed with respective test solutions. […] 6 days after application aphid mortality and phytotoxicity were evaluated. […] Additionally the average plant height per replicate was measured.
melting point,SMILES,other results
96 to 110 °C,CCOC(=O)OC1=C(c2cc(C)ccc2C)C(=O)N(C)C12CCN(OC)CC2 [Compound P1.1],–
101 to 103 °C,CCOC(=O)OC1=C(c2c(C)cc(C)cc2C)C(=O)N(CC)C12CCN(OC)CC2 [Compound P1.8],–
158 to 159 °C,CCOC(=O)OC1=C(c2cc(C)c(C)cc2Br)C(=O)N(C)C12CCN(OC)CC2 [Compound P1.20],–
149 to 150 °C,CCOC(=O)OC1=C(c2cc(C)c(C)cc2Cl)C(=O)N(C)C12CCN(OC)CC2 [Compound P1.22],–
–,CCOC(=O)OC1=C(c2c(C)cc(Cl)cc2C)C(=O)N(C)C12CCN(OC)CC2 [Compound P1.29],"mortality at 12.5 ppm ([1]; read-out: % mortality, corr., 12.5 ppm AI, Cloquintocet, ratio AI:safener 0.9:1, 7 d after application): 98%; mortality at 12.5 ppm ([1]; read-out: % mortality, corr., 12.5 ppm AI, Safener 2, ratio AI:safener 0.9:1, 7 d after application): 65%; mortality at 25 ppm ([1]; read-out: % mortality, corr., 25 ppm AI, Cloquintocet, ratio AI:safener 1.9:1, 7 d after application): 100%; mortality at 25 ppm ([1]; read-out: % mortality, corr., 25 ppm AI, Safener 2, ratio AI:safener 1.9:1, 7 d after application): 95%; mortality at 50 ppm ([1]; read-out: % mortality, corr., 50 ppm AI, Safener 2, ratio AI:safener 1.25:1, 7 d after application): 100%; mortality at 100 ppm ([1]; read-out: % mortality, corr., 100 ppm AI, Safener 2, ratio AI:safener 7.5:1, 7 d after application): 100%; mortality at 200 ppm ([1]; read-out: % mortality, corr., 200 ppm AI, Safener 2, ratio AI:safener 15:1, 7 d after application): 100%; mortality at 25 ppm ([2]; read-out: Efficacy (% mortality) against cereal aphids (Rhopalosiphum padi), test compound 25 ppm, adjuvant Mero 0.1% v/v, ratio AI:safener cell blank (no safener), wheat, 6 days after application, Abbott's formula): 97%; mortality at 25 ppm ([2]; read-out: Efficacy (% mortality) against cereal aphids (Rhopalosiphum padi), test compound 25 ppm, adjuvant Mero 0.1% v/v, safener cloquintocet, ratio AI:safener 1:1, wheat, 6 days after application, Abbott's formula): 96.6%; mortality at 25 ppm ([2]; read-out: Efficacy (% mortality) against cereal aphids (Rhopalosiphum padi), test compound 25 ppm, adjuvant Mero 0.1% v/v, safener cloquintocet, ratio AI:safener 1:2, wheat, 6 days after application, Abbott's formula): 96.9%"
93 to 95 °C,COCON1C(=O)C(c2cc(C)ccc2C)=C(OC(=O)CC(C)(C)C)C12CCN(OC)CC2 [Compound P1ii.5],–
91 to 93 °C,COCON1C(=O)C(c2cc(C)ccc2C)=C(OC)C12CCN(OC)CC2 [Compound P1ii.31],–
116 to 119 °C,CCOC(=O)OC1=C(c2c(F)ccc(C)c2Cl)C(=O)N(OCOC)C12CCN(OC)CC2 [Compound P1ii.61],–
122 to 125 °C,CCOC(=O)OC1=C(c2c(C)cc(Cl)cc2C)C(=O)N(OC)C12CCN(OC)CC2 [Compound P1ii.114],–
121 to 123 °C,CON1CCC2(CC1)C(O)=C(c1cc(C)ccc1C)C(=O)N2C [Compound P2.1],–
223 to 225 °C,"CON1CCC2(CC1)C(O)=C(c1c(C)cc(C)cc1C)C(=O)N2CC1CC1 [Compound P2.8, 1-Cyclopropylmethyl-4-hydroxy-8-methoxy-3-(2,4,6-trimethyl-phenyl)-1,8-diaza-spiro[4.5]dec-3-en-2-one]",–
218 to 221 °C,CCN1C(=O)C(c2c(C)cc(C)cc2C)=C(O)C12CCN(OC)CC2 [Compound P2.11],–
191 to 193 °C,CON1CCC2(CC1)C(O)=C(c1cc(C)c(C)cc1Br)C(=O)N2C [Compound P2.23],–
183 to 186 °C,CON1CCC2(CC1)C(O)=C(c1cc(C)c(C)cc1C)C(=O)N2C [Compound P2.25],–
191 to 192 °C,"CON1CCC2(CC1)C(O)=C(c1cc(C)c(C)cc1Cl)C(=O)N2C [Compound P2.26, 3-(2-Chloro-4,5-dimethyl-phenyl)-4-hydroxy-8-methoxy-1-methyl-1,8-diaza-spiro[4.5]dec-3-en-2-one]",–
182 to 183 °C,CON1CCC2(CC1)C(O)=C(c1cc(Br)c(C)cc1C)C(=O)N2C [Compound P2.28],–
128 °C (dec.),"COCON1C(=O)C(c2c(C)cc(-c3ccc(Cl)cc3)cc2C)=C(O)C12CCN(OC)CC2 [Compound P2ii.15, 3-(4′-Chloro-3,5-dimethyl-biphenyl-4-yl)-4-hydroxy-8-methoxy-1-methoxymethoxy-1,8-diaza-spiro[4.5]dec-3-en-2-one]",–
135 to 137 °C,CON1CCC2(CC1)C(O)=C(c1c(C)cc(C)cc1C)C(=O)N2OCCOC1CCCCO1 (stereo not shown) [Compound P2ii.22],–
155 to 158 °C,COCON1C(=O)C(c2c(F)ccc(C)c2Cl)=C(O)C12CCN(OC)CC2 [Compound P2ii.60],–
63 to 64 °C,COCCON1C(=O)C(c2cc(Br)c(C)cc2C)=C(O)C12CCN(OC)CC2 [Compound P2ii.73],–
86 to 87 °C,CON1CCC2(CC1)C(O)=C(c1cc(Br)c(C)cc1C)C(=O)N2OC [Compound P2ii.75],–
71 to 74 °C,COCCON1C(=O)C(c2cc(Br)c(F)cc2C)=C(O)C12CCN(OC)CC2 [Compound P2ii.87],–
64 to 67 °C,COCON1C(=O)C(c2cc(Br)c(F)cc2C)=C(O)C12CCN(OC)CC2 [Compound P2ii.89],–
169 to 172 °C,CON1CCC2(CC1)C(O)=C(c1c(C)cc(C)cc1C)C(=O)N2OCC1CCCCC1 [Compound P2ii.96],–
161 to 164 °C,COCCON1C(=O)C(c2c(C)cc(Cl)cc2C)=C(O)C12CCN(OC)CC2 [Compound P2ii.101],–
88 to 92 °C,CON1CCC2(CC1)C(O)=C(c1c(C)cc(Cl)cc1C)C(=O)N2OC [Compound P2ii.102],–
176 to 178 °C,COCON1C(=O)C(c2c(C)cc(Cl)cc2C)=C(O)C12CCN(OC)CC2 [Compound P2ii.104],–
137 to 139 °C,CON1CCC2(CC1)C(O)=C(c1c(C)cc(Cl)cc1C)C(=O)N2OC1CCCO1 (stereo not shown) [Compound P2ii.105],–
